This is an account of results in PMC9863266, “Preclinical Studies and Drug Combination of Low-Cost Molecules for Chagas Disease” (Pharmaceuticals, 2022).

Several values for one entry are separate records, joined by “and”; a condition that tells them apart may be missing. Equal entries are not always repeated.

The test system of one series is Leishmania infantum. On the set-up: method as in earlier work. To be noted: amastigotes; read-out: In vitro anti-Leishmania infantum (visceral) activity (IC50); cited from earlier work.
Series [1] relates to Leishmania spp (cutaneous) promastigotes. On the set-up: method as in earlier work. The settings on record: read-out: In vitro anti-Leishmania spp (cutaneous) activity (IC50); cited from earlier work.
The next series relates to cruzipain. The settings on record: cited from earlier work.
Another series concerns CD1 and Balb/c mice. Details: method as in earlier work. To be noted: cited from earlier work.
The next series deals with zebrafish embryos. On the set-up: method as in earlier work. To be noted: cited from earlier work.
Series [2] concerns Salmonella typhimurium strains TA98, T100, T102, TA1535, and TA1537. The settings on record: cited from earlier work.
The test system of series [3] is CD-1 mice. The settings on record: mouse, in vivo; cited from earlier work.
The next series relates to T. cruzi amastigotes. On the set-up: method as in earlier work. The settings on record: read-out: In vitro anti-T. cruzi activity (multiple strains) (IC50); cited from earlier work.
In series [4] the test system is CD-1 mice. Kind of series: Micronucleus test in mice (genotoxicity). To be noted: positive control, 50 mg/kg intraperitoneal, single dose 24 h before sacrifice. How it is done: The protocol was approved by the Paraguayan ethics committee for animal experimentation (No. IORG0010088). […] The treatment of each group was repeated five times, totaling 5 animals per concentration. The route used in the administration of the negative control and the compound (groups I and II) was oral, using an esophageal cannula and in group III the route was intraperitoneal. The intervention was carried out in two doses: 24 and 48 h before sacrifice, except for cyclophosphamide, which was administered in a single dose, 24 h before sacrifice. At the end of the experiment, the femurs were harvested, and the red bone marrow was removed with fetal bovine serum, kept at 37 °C. […] Samples were stained with 4 % Giemsa stain for 3 min and analyzed under an immersion light microscope. For each treated animal, 1000 polychromatic erythrocytes (EPCs) were counted, including those that presented micronucleus (EPCMNs). The ratio of polychromatic erythrocytes (EPC) vs. normochromatic erythrocytes (ENC), upon counting 100 cells, was also evaluated. The proportion of EPCMNs was calculated for each group, and the treated groups with the compound and cyclophosphamide were compared with the negative control group. The statistical analysis was carried out from the individual values of the evaluated parameters, calculating the mean values and their standard deviations for each of the experimental groups. […]

For series [5], the system named is epimastigote form of T. cruzi, Tulahuen 2 strain. Put plainly: Mechanism of death by flow cytometry, AV/IP labeling. In kind it is cell-based. The settings on record: 24 h; 20 × IC50. On the procedure:
Parasites were immediately analyzed on an Accuri C6 flow cytometer (BD Bioscience, Franklin Lakes, New Jersey, U.S.). […] Ten thousand events were analyzed for each of the two independent experiments. Data were analyzed using BD CSampler software (BD Bioscience). Untreated parasites were used as a control. For the positive control of apoptosis and necrosis, the parasites were treated with hydrogen peroxide (H2O2) 50 µM and 100 µM for 2.5 h, respectively. These single-spot controls were used to calculate color compensation for flow cytometry.

Series [6] concerns CL Brener clone of T. cruzi. Put plainly: Acute murine model of Chagas disease. In kind it is in vivo, Balb/c mice. On the procedure: Three-month-old Balb/c mice were infected (day 0) with infected blood from mice at the beginning of the peak of parasitemia (parasitemia greater than 1.0 × 10^6 p /mL with the CL Brener clone of T. cruzi) by intraperitoneal injection (10,000 parasites per mouse). Parasitemia was followed from the fourth-day post-infection until all the mice in the group were positive. Parasitemia measurements were performed by optical microscopy. Once all the mice were positive, the treatment was started. The treatment lasted 15 consecutive days; the compounds were administered orally by intragastric cannula once a day. Parasitemia was monitored weekly. At 30 and 60 days, 200 μL of blood was extracted from the mouse tail for serological tests (ELISA test) to detect antigens of T. cruzi. Day 60 was the end of the experiment, and the animals were sacrificed.
Hemoconcentration and counting micromethod: the mice were bled by pricking the tail and taking the blood with capillaries. One capillary per mouse draws 8-18 mm in height of blood. The millimeters were converted to μL by a table previously described and calibrated in the laboratory. The capillaries were centrifuged at 3000× g for 40 s. The parasitic load in the capillary was observed by optical microscopy (OM) in the capillary: the red blood cells (GR) were distributed at one end and the supernatant serum at the other end, at the interface is the trypomastigotes. Then, the capillary was cut a few mm on the interface towards the GR part and its content was spread on a slide, covered with a coverslip. Then, the total number of parasites in 50 fields (OM at 40× magnification) was counted. This sum was then multiplied by 1/50 to obtain the average number of trypomastigotes per field, corresponding to the number of trypanosomes per 5 mm^3. This was then compared to the samples from control animals. The mean and standard deviation were calculated by using OriginPro9 and GraphPad Prism 5. Comparisons of parasite suppression were completed by the analysis of variance (two-way ANOVA as a […] statistical test).

With `CC(=NNC(N)=S)[C@H]1CC[C@H]2[C@@H]3CC=C4C[C@@H](O)CC[C@]4(C)[C@H]3CC[C@]12C` [Compound 1260, 1-(3β-Hydroxy-pregn-5-ene-20E-ylydene)thiosemicarbazide], the IC50 in the series with Leishmania infantum is less than 0.2 µM; in series [1], less than 20 µM; with T. cruzi amastigotes it was 0.1 µM. In the series on cruzipain, the “Cruzipain inhibitor (known)” value is recorded as “not an inhibitor of cruzipain”. The “Acute oral toxicity in mice (Up and Down test, LD50)” value with CD1 and Balb/c mice is recorded as > 2000 mg/kg of body weight. Moreover, the “Teratogenicity in zebrafish (LD50)” value with zebrafish embryos is recorded as more than 15 µM. Also, the “Ames test (mutagenicity)” value in series [2] is given as “NO”. Besides, the “Micronucleus test in mice (Genotoxicity)” value in the series with CD-1 mice [3] is given as “NO”.

Turning to `O=P1(N(CCCl)CCCl)NCCCO1` (stereo not shown) [cyclophosphamide, reference compound], the “Micronucleus test in mice (Genotoxicity) (mean of MnPE ±SD)” value with CD-1 mice [4] is 36 ± 2 MnPE and 36 ± 2 (cyclophosphamide) MnPE.

`CC1CS(=O)(=O)CCN1/N=C/c1ccc([N+](=O)[O-])o1` (stereo not shown) [Nfx, Nifurtimox, reference compound]: the “AV/IP labeling Q1-UR (double AV+/IP+ labeling)” value in series [5] is listed as 59%.

On to `O=C(Cn1ccnc1[N+](=O)[O-])NCc1ccccc1` [Bnz, Benznidazole], for which the “Days Post-Infection of the First Parasitemia Peak” value in [6] (10 µmoles/kg/day) came out at 15 days; in series [6] (38 µmoles/kg/day) it was 15 days; in [6] (48 µmoles/kg/day), 43 days. Besides, the results for the “Reduction in the Parasitemia Peak (%)” value in [6] (10 µmoles/kg/day), in series [6] (38 µmoles/kg/day) and in series [6] (48 µmoles/kg/day) were 80%, 90% and 95%, respectively. The “Survival (%)” value in series [6] (10 µmoles/kg/day), in series [6] (38 µmoles/kg/day) and in series [6] (48 µmoles/kg/day) was 100% each time.
